According to PubChem BioAssay (NCI):
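48-hour exposure; five concentrations; linearly interpolated endpoints. At the TGI there is no net growth.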

What was measured:
Experiment in all cases: NCI anticancer screen, dose series, 48 h
NCI-H460 lung = test system: NCI-H460 lung
OVCAR-5 ovarian = test system: OVCAR-5 ovarian
NCI-H23 lung = test system: NCI-H23 lung
SF-295 CNS = test system: SF-295 CNS
SF-268 CNS = test system: SF-268 CNS
M14 melanoma = test system: M14 melanoma
SF-539 CNS = test system: SF-539 CNS
COLO 205 colon = test system: COLO 205 colon
SR leukemia = test system: SR leukemia
SK-MEL-5 melanoma = test system: SK-MEL-5 melanoma
UO-31 renal = test system: UO-31 renal
TK-10 renal = test system: TK-10 renal
MOLT-4 leukemia = test system: MOLT-4 leukemia
PC-3 prostate = test system: PC-3 prostate
SK-MEL-2 melanoma = test system: SK-MEL-2 melanoma
A498 renal = test system: A498 renal
HOP-92 NSCLC = test system: HOP-92 NSCLC
LOX IMVI melanoma = test system: LOX IMVI melanoma
HS 578T breast = test system: HS 578T breast
HL-60(TB) leukemia = test system: HL-60(TB) leukemia
K-562 leukemia = test system: K-562 leukemia
CAKI-1 renal = test system: CAKI-1 renal
SN12C renal = test system: SN12C renal
MDA-N = test system: MDA-N
SW-620 colon = test system: SW-620 colon
EKVX NSCLC = test system: EKVX NSCLC
HOP-62 NSCLC = test system: HOP-62 NSCLC
MCF7 breast = test system: MCF7 breast
SK-OV-3 ovarian = test system: SK-OV-3 ovarian
KM12 colon = test system: KM12 colon
SK-MEL-28 melanoma = test system: SK-MEL-28 melanoma
OVCAR-3 ovarian = test system: OVCAR-3 ovarian
MALME-3M melanoma = test system: MALME-3M melanoma
HCT-15 colon = test system: HCT-15 colon
SNB-19 CNS = test system: SNB-19 CNS
ACHN renal = test system: ACHN renal
UACC-62 melanoma = test system: UACC-62 melanoma
IGROV1 ovarian = test system: IGROV1 ovarian
DU-145 prostate = test system: DU-145 prostate
786-0 renal = test system: 786-0 renal
T-47D breast = test system: T-47D breast
HCT-116 colon = test system: HCT-116 colon
RPMI-8226 leukemia = test system: RPMI-8226 leukemia
NCI-H226 lung = test system: NCI-H226 lung
OVCAR-4 ovarian = test system: OVCAR-4 ovarian
A549 NSCLC = test system: A549 NSCLC
RXF 393 renal = test system: RXF 393 renal
NCI-H522 lung = test system: NCI-H522 lung
SNB-75 CNS = test system: SNB-75 CNS
MDA-MB-435 = test system: MDA-MB-435
HCC-2998 colon = test system: HCC-2998 colon
OVCAR-8 ovarian = test system: OVCAR-8 ovarian
UACC-257 melanoma = test system: UACC-257 melanoma
U251 CNS = test system: U251 CNS
MDA-MB-231 breast = test system: MDA-MB-231 breast
HT29 colon = test system: HT29 colon
NCI/ADR-RES ovarian = test system: NCI/ADR-RES ovarian
CCRF-CEM leukemia = test system: CCRF-CEM leukemia

SMILES: Cc1ccc(C(=O)CC(O)(C(F)(F)F)C(F)(F)F)cc1[N+](=O)[O-]
- TGI (NCI-H460 lung): 25.1 µM
- TGI (OVCAR-5 ovarian): 33.4 µM
- TGI (NCI-H23 lung): 23.7 µM
- TGI (SF-295 CNS): 19.7 µM
- TGI (SF-268 CNS): 31.4 µM
- TGI (M14 melanoma): 17.9 µM
- TGI (SF-539 CNS): 31.7 µM
- TGI (COLO 205 colon): 36.5 µM
- TGI (SR leukemia): 14.3 µM
- TGI (SK-MEL-5 melanoma): 30.8 µM
- TGI (UO-31 renal): 10.6 µM
- TGI (TK-10 renal): 33.3 µM
- TGI (MOLT-4 leukemia): 68.5 µM
- TGI (PC-3 prostate): 27.2 µM
- TGI (SK-MEL-2 melanoma): 34 µM
- TGI (A498 renal): 35.8 µM
- TGI (HOP-92 NSCLC): 22.3 µM
- TGI (LOX IMVI melanoma): 5.22 µM
- TGI (HS 578T breast): 42.6 µM
- TGI (HL-60(TB) leukemia): 4.41 µM
- TGI (K-562 leukemia): > 28.2 µM
- TGI (CAKI-1 renal): 4.58 µM
- TGI (SN12C renal): 25 µM
- TGI (MDA-N): 28.2 µM
- TGI (SW-620 colon): 42.8 µM
- TGI (EKVX NSCLC): 31.7 µM
- TGI (HOP-62 NSCLC): 29.2 µM
- TGI (MCF7 breast): 11 µM
- TGI (SK-OV-3 ovarian): 32.2 µM
- TGI (KM12 colon): 6.31 µM
- TGI (SK-MEL-28 melanoma): 23.4 µM
- TGI (OVCAR-3 ovarian): 6.44 µM
- TGI (MALME-3M melanoma): 31.8 µM
- TGI (HCT-15 colon): 13.6 µM
- TGI (SNB-19 CNS): 22.6 µM
- TGI (ACHN renal): 28.9 µM
- TGI (UACC-62 melanoma): 21.9 µM
- TGI (IGROV1 ovarian): 11.2 µM
- TGI (DU-145 prostate): 13.7 µM
- TGI (786-0 renal): 25.9 µM
- TGI (T-47D breast): 38.9 µM
- TGI (HCT-116 colon): 12.1 µM
- TGI (RPMI-8226 leukemia): 69.4 µM
- TGI (NCI-H226 lung): 38.7 µM
- TGI (OVCAR-4 ovarian): 30.7 µM
- TGI (A549 NSCLC): 33 µM
- TGI (RXF 393 renal): 27.1 µM
- TGI (NCI-H522 lung): 1.19 µM
- TGI (SNB-75 CNS): 33.2 µM
- TGI (MDA-MB-435): 22.5 µM
- TGI (HCC-2998 colon): 12.9 µM
- TGI (OVCAR-8 ovarian): 25.9 µM
- TGI (UACC-257 melanoma): 9.39 µM
- TGI (U251 CNS): 31.2 µM
- TGI (MDA-MB-231 breast): 21.5 µM
- TGI (HT29 colon): 4.12 µM
- TGI (NCI/ADR-RES ovarian): 44.2 µM

SMILES: C[C@@H](c1ccccc1)C(CC#N)[C@H]1CCC[C@]1(O)C#Cc1ccc2c(c1)OCO2 (stereo partly drawn)
- TGI (NCI-H460 lung): 31.3 µM
- TGI (OVCAR-5 ovarian): 30.8 µM
- TGI (NCI-H23 lung): 35.5 µM
- TGI (SF-295 CNS): 32.4 µM
- TGI (SF-268 CNS): 38.8 µM
- TGI (M14 melanoma): 30.9 µM
- TGI (SF-539 CNS): 24.1 µM
- TGI (COLO 205 colon): 33.1 µM
- TGI (SR leukemia): 46.6 µM
- TGI (CCRF-CEM leukemia): 35.5 µM
- TGI (SK-MEL-5 melanoma): 32.8 µM
- TGI (UO-31 renal): 27.7 µM
- TGI (TK-10 renal): 29.6 µM
- TGI (MOLT-4 leukemia): 25.2 µM
- TGI (PC-3 prostate): 31.1 µM
- TGI (SK-MEL-2 melanoma): 32.7 µM
- TGI (A498 renal): 34.9 µM
- TGI (HOP-92 NSCLC): 28.4 µM
- TGI (LOX IMVI melanoma): 39.5 µM
- TGI (HS 578T breast): 43.7 µM
- TGI (HL-60(TB) leukemia): 43.8 µM
- TGI (K-562 leukemia): 47.8 µM
- TGI (CAKI-1 renal): 30.8 µM
- TGI (MDA-N): 30.4 µM
- TGI (SW-620 colon): 33.2 µM
- TGI (EKVX NSCLC): 35.4 µM
- TGI (HOP-62 NSCLC): 31.3 µM
- TGI (MCF7 breast): 41.3 µM
- TGI (SK-OV-3 ovarian): 34.6 µM
- TGI (KM12 colon): 31.6 µM
- TGI (SK-MEL-28 melanoma): 30.1 µM
- TGI (OVCAR-3 ovarian): 29.2 µM
- TGI (MALME-3M melanoma): 33.8 µM
- TGI (HCT-15 colon): 32.3 µM
- TGI (SNB-19 CNS): 29.8 µM
- TGI (ACHN renal): 30.8 µM
- TGI (UACC-62 melanoma): 32.7 µM
- TGI (IGROV1 ovarian): 33.9 µM
- TGI (DU-145 prostate): 31.6 µM
- TGI (786-0 renal): 31.3 µM
- TGI (T-47D breast): 32 µM
- TGI (RPMI-8226 leukemia): 62.5 µM
- TGI (NCI-H226 lung): 33.1 µM
- TGI (OVCAR-4 ovarian): 32.6 µM
- TGI (A549 NSCLC): 29.8 µM
- TGI (RXF 393 renal): 28.6 µM
- TGI (NCI-H522 lung): 32.4 µM
- TGI (SNB-75 CNS): 32 µM
- TGI (MDA-MB-435): 31.3 µM
- TGI (HCC-2998 colon): 30.3 µM
- TGI (OVCAR-8 ovarian): 32.7 µM
- TGI (UACC-257 melanoma): 34.6 µM
- TGI (U251 CNS): 32.1 µM
- TGI (MDA-MB-231 breast): 33.7 µM
- TGI (HT29 colon): 28.9 µM
- TGI (NCI/ADR-RES ovarian): 33.8 µM
